Calls of active or inactive are those of the source.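 The calls were made as follows: active = GFP ratio to DMSO above 1.5 or below 0.66; inactive = the rest.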
Experiments:
Experiment in all cases: expression changes of rapamycin-responsive GFP fusion proteins, S. cerevisiae, GFP-tagged clone panel, flow cytometry (AID 504473);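 also: median GFP fluorescence of the cells measured by high-throughput flow cytometry; test concentration not given here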
YDL204W = settings: S. cerevisiae GFP-tagged strains, 3 h
YPR132W = settings: S. cerevisiae GFP-tagged strains, 3 h
YLR237W = settings: S. cerevisiae GFP-tagged strains, 3 h
YGR034W = settings: S. cerevisiae GFP-tagged strains, 3 h
YKR093W = settings: S. cerevisiae GFP-tagged strains, 3 h
YEL007W = settings: S. cerevisiae GFP-tagged strains, 3 h
YCR005C = settings: S. cerevisiae GFP-tagged strains, 3 h
YKR039W = settings: S. cerevisiae GFP-tagged strains, 3 h
YOL052C-A = settings: S. cerevisiae GFP-tagged strains, 3 h
YML004C = settings: S. cerevisiae GFP-tagged strains, 3 h
YGL062W = settings: S. cerevisiae GFP-tagged strains, 3 h
YBR208C = settings: S. cerevisiae GFP-tagged strains, 3 h
YJL056C = settings: S. cerevisiae GFP-tagged strains, 3 h
YDR453C = settings: S. cerevisiae GFP-tagged strains, 3 h
YKL119C = settings: S. cerevisiae GFP-tagged strains, 3 h
YGL147C = settings: S. cerevisiae GFP-tagged strains, 3 h
YDR399W = settings: S. cerevisiae GFP-tagged strains, 3 h
YPL150W = settings: S. cerevisiae GFP-tagged strains, 3 h
YKL103C = settings: S. cerevisiae GFP-tagged strains, 3 h
YNR001C = settings: S. cerevisiae GFP-tagged strains, 3 h
YIL051C = settings: S. cerevisiae GFP-tagged strains, 3 h
YHR087W = settings: S. cerevisiae GFP-tagged strains, 3 h
YGR088W = settings: S. cerevisiae GFP-tagged strains, 3 h
YBR139W = settings: S. cerevisiae GFP-tagged strains, 3 h
YFR031C-A = settings: S. cerevisiae GFP-tagged strains, 3 h
YFR053C = settings: S. cerevisiae GFP-tagged strains, 3 h
YLR287C-A = settings: S. cerevisiae GFP-tagged strains, 3 h
YOR371C = settings: S. cerevisiae GFP-tagged strains, 3 h
YOR038C = settings: S. cerevisiae GFP-tagged strains, 3 h
YCL064C = settings: S. cerevisiae GFP-tagged strains, 3 h
YER081W = settings: S. cerevisiae GFP-tagged strains, 3 h
YEL063C = settings: S. cerevisiae GFP-tagged strains, 3 h
YLR109W = settings: S. cerevisiae GFP-tagged strains, 3 h
YHR203C = settings: S. cerevisiae GFP-tagged strains, 3 h
YDL130W = settings: S. cerevisiae GFP-tagged strains, 3 h
YER156C = settings: S. cerevisiae GFP-tagged strains, 3 h
YGR121C = settings: S. cerevisiae GFP-tagged strains, 3 h
YDR070C = settings: S. cerevisiae GFP-tagged strains, 3 h
YGL036W = settings: S. cerevisiae GFP-tagged strains, 3 h
YML128C = settings: S. cerevisiae GFP-tagged strains, 3 h
YKL086W = settings: S. cerevisiae GFP-tagged strains, 3 h
YLL026W = settings: S. cerevisiae GFP-tagged strains, 3 h
YPL111W = settings: S. cerevisiae GFP-tagged strains, 3 h
YMR105C = settings: S. cerevisiae GFP-tagged strains, 3 h
YKR094C = settings: S. cerevisiae GFP-tagged strains, 3 h
YIL043C = settings: S. cerevisiae GFP-tagged strains, 3 h
YPR145W = settings: S. cerevisiae GFP-tagged strains, 3 h
YLR367W = settings: S. cerevisiae GFP-tagged strains, 3 h
YOR375C = settings: S. cerevisiae GFP-tagged strains, 3 h
YLR058C = settings: S. cerevisiae GFP-tagged strains, 3 h
YBR248C = settings: S. cerevisiae GFP-tagged strains, 3 h
YJL144W = settings: S. cerevisiae GFP-tagged strains, 3 h
YER151C = settings: S. cerevisiae GFP-tagged strains, 3 h
YIL066C = settings: S. cerevisiae GFP-tagged strains, 3 h
YLL039C = settings: S. cerevisiae GFP-tagged strains, 3 h
YML034W = settings: S. cerevisiae GFP-tagged strains, 3 h
YPL265W = settings: S. cerevisiae GFP-tagged strains, 3 h
YML026C = settings: S. cerevisiae GFP-tagged strains, 3 h
YMR251W-A = settings: S. cerevisiae GFP-tagged strains, 3 h
YEL060C = settings: S. cerevisiae GFP-tagged strains, 3 h
YNL015W = settings: S. cerevisiae GFP-tagged strains, 3 h
YOR063W = settings: S. cerevisiae GFP-tagged strains, 3 h
YNL112W = settings: S. cerevisiae GFP-tagged strains, 3 h
YLR142W = settings: S. cerevisiae GFP-tagged strains, 3 h
YML063W = settings: S. cerevisiae GFP-tagged strains, 3 h
YIL069C = settings: S. cerevisiae GFP-tagged strains, 3 h
YIL052C = settings: S. cerevisiae GFP-tagged strains, 3 h
YHR141C = settings: S. cerevisiae GFP-tagged strains, 3 h
YHR018C = settings: S. cerevisiae GFP-tagged strains, 3 h
YLR185W = settings: S. cerevisiae GFP-tagged strains, 3 h
[1] = target: General amino acid permease AGP1 (Saccharomyces cerevisiae S288c) (UniProt P25376); settings: S. cerevisiae GFP-tagged strains, 3 h, YCL025C
YPL220W = settings: S. cerevisiae GFP-tagged strains, 3 h
YGR019W = settings: S. cerevisiae GFP-tagged strains, 3 h
YOR182C = settings: S. cerevisiae GFP-tagged strains, 3 h
YMR120C = settings: S. cerevisiae GFP-tagged strains, 3 h
YCR002C = settings: S. cerevisiae GFP-tagged strains, 3 h
YMR307W = settings: S. cerevisiae GFP-tagged strains, 3 h
YEL071W = settings: S. cerevisiae GFP-tagged strains, 3 h
YNL142W = settings: S. cerevisiae GFP-tagged strains, 3 h
YHR144C = settings: S. cerevisiae GFP-tagged strains, 3 h
YJR148W = settings: S. cerevisiae GFP-tagged strains, 3 h
YDL205C = settings: S. cerevisiae GFP-tagged strains, 3 h
YOR173W = settings: S. cerevisiae GFP-tagged strains, 3 h
YAL061W = settings: S. cerevisiae GFP-tagged strains, 3 h
YPL131W = settings: S. cerevisiae GFP-tagged strains, 3 h
YER117W = settings: S. cerevisiae GFP-tagged strains, 3 h
YGL135W = settings: S. cerevisiae GFP-tagged strains, 3 h
YDR382W = settings: S. cerevisiae GFP-tagged strains, 3 h
YPR184W = settings: S. cerevisiae GFP-tagged strains, 3 h
YBL087C = settings: S. cerevisiae GFP-tagged strains, 3 h
YNL214W = settings: S. cerevisiae GFP-tagged strains, 3 h
YNL068C = settings: S. cerevisiae GFP-tagged strains, 3 h
YHL021C = settings: S. cerevisiae GFP-tagged strains, 3 h
YBR072W = settings: S. cerevisiae GFP-tagged strains, 3 h
YAL060W = settings: S. cerevisiae GFP-tagged strains, 3 h
YOR136W = settings: S. cerevisiae GFP-tagged strains, 3 h

General amino acid permease AGP1 (Saccharomyces cerevisiae S288c), sequence (P25376 whole entry, looked up): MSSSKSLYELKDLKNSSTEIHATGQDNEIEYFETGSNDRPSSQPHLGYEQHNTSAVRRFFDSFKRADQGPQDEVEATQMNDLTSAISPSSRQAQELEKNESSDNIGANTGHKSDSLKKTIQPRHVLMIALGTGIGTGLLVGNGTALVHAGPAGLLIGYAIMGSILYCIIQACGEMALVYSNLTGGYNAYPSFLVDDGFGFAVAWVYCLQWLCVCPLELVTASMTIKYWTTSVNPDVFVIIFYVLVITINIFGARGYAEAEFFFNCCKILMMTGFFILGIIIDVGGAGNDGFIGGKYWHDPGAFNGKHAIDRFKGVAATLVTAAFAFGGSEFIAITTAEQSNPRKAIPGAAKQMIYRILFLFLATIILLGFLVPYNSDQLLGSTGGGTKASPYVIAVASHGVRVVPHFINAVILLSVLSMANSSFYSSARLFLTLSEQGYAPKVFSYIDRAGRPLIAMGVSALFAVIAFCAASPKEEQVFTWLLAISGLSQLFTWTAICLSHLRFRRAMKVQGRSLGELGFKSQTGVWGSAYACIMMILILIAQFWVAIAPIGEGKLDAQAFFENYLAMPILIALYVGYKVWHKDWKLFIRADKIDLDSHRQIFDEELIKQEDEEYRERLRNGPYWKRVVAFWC

CO[C@H]1C[C@@H]2CC[C@@H](C)[C@@](O)(O2)C(=O)C(=O)N2CCCC[C@H]2C(=O)O[C@H]([C@H](C)C[C@@H]2CC[C@@H](O)[C@H](OC)C2)CC(=O)[C@H](C)/C=C(\C)[C@@H](O)[C@@H](OC)C(=O)[C@H](C)C[C@H](C)/C=C/C=C/C=C/1C
GFP ratio to DMSO (YDL204W): 1.4 (inactive) | GFP ratio to DMSO (YPR132W): 0.366 | GFP ratio to DMSO (YLR237W): 0.864 (inactive) | GFP ratio to DMSO (YGR034W): 0.689 (inactive) | GFP ratio to DMSO (YKR093W): 3.56 | GFP ratio to DMSO (YEL007W): 1.05 (inactive) | GFP ratio to DMSO (YCR005C): 4.59 | GFP ratio to DMSO (YKR039W): 12.7 | GFP ratio to DMSO (YOL052C-A): 2.68 | GFP ratio to DMSO (YML004C): 1.5 (inactive) | GFP ratio to DMSO (YGL062W): 2.27 | GFP ratio to DMSO (YBR208C): 3.04 | GFP ratio to DMSO (YJL056C): 0.954 (inactive) | GFP ratio to DMSO (YDR453C): 2.58 | GFP ratio to DMSO (YKL119C): 1.03 (inactive) | GFP ratio to DMSO (YGL147C): 0.682 (inactive) | GFP ratio to DMSO (YDR399W): 0.946 (inactive) | GFP ratio to DMSO (YPL150W): 1.04 (inactive) | GFP ratio to DMSO (YKL103C): 2.8 | GFP ratio to DMSO (YNR001C): 1.7 | GFP ratio to DMSO (YIL051C): 1.4 (inactive) | GFP ratio to DMSO (YHR087W): 2.24 | GFP ratio to DMSO (YGR088W): 2.06 | GFP ratio to DMSO (YBR139W): 1.61 | GFP ratio to DMSO (YFR031C-A): 0.481 | GFP ratio to DMSO (YFR053C): 1.66 | GFP ratio to DMSO (YLR287C-A): 0.625 | GFP ratio to DMSO (YOR371C): 1.06 (inactive) | GFP ratio to DMSO (YOR038C): 1.21 (inactive) | GFP ratio to DMSO (YCL064C): 1.28 (inactive) | GFP ratio to DMSO (YER081W): 1.08 (inactive) | GFP ratio to DMSO (YEL063C): 1.7 | GFP ratio to DMSO (YLR109W): 1.43 (inactive) | GFP ratio to DMSO (YHR203C): 0.685 (inactive) | GFP ratio to DMSO (YDL130W): 0.717 (inactive) | GFP ratio to DMSO (YER156C): 1.05 (inactive) | GFP ratio to DMSO (YGR121C): 1.72 | GFP ratio to DMSO (YDR070C): 4.12 | GFP ratio to DMSO (YGL036W): 0.919 (inactive) | GFP ratio to DMSO (YML128C): 2.56 | GFP ratio to DMSO (YKL086W): 1.49 (inactive) | GFP ratio to DMSO (YLL026W): 2.05 | GFP ratio to DMSO (YPL111W): 2.16 | GFP ratio to DMSO (YMR105C): 2.65 | GFP ratio to DMSO (YKR094C): 0.484 | GFP ratio to DMSO (YIL043C): 0.996 (inactive) | GFP ratio to DMSO (YPR145W): 2.19 | GFP ratio to DMSO (YLR367W): 0.635 | GFP ratio to DMSO (YOR375C): 1.78 | GFP ratio to DMSO (YLR058C): 1.04 (inactive) | GFP ratio to DMSO (YBR248C): 1.11 (inactive) | GFP ratio to DMSO (YJL144W): 2.03 | GFP ratio to DMSO (YER151C): 1.03 (inactive) | GFP ratio to DMSO (YIL066C): 1.17 (inactive) | GFP ratio to DMSO (YLL039C): 1.77 | GFP ratio to DMSO (YML034W): 1.04 (inactive) | GFP ratio to DMSO (YPL265W): 3.22 | GFP ratio to DMSO (YML026C): 0.289 | GFP ratio to DMSO (YMR251W-A): 1.96 | GFP ratio to DMSO (YEL060C): 2.55 | GFP ratio to DMSO (YNL015W): 1.88 | GFP ratio to DMSO (YOR063W): 0.703 (inactive) | GFP ratio to DMSO (YNL112W): 0.73 (inactive) | GFP ratio to DMSO (YLR142W): 1.41 (inactive) | GFP ratio to DMSO (YML063W): 0.714 (inactive) | GFP ratio to DMSO (YIL069C): 0.171 | GFP ratio to DMSO (YIL052C): 0.619 | GFP ratio to DMSO (YHR141C): 0.777 (inactive) | GFP ratio to DMSO (YHR018C): 1.54 | GFP ratio to DMSO (YLR185W): 0.705 (inactive) | GFP ratio to DMSO [1]: 2.27 | GFP ratio to DMSO (YPL220W): 0.887 (inactive) | GFP ratio to DMSO (YGR019W): 1.93 | GFP ratio to DMSO (YOR182C): 0.576 | GFP ratio to DMSO (YMR120C): 0.612 | GFP ratio to DMSO (YCR002C): 0.98 (inactive) | GFP ratio to DMSO (YMR307W): 0.685 (inactive) | GFP ratio to DMSO (YEL071W): 2.11 | GFP ratio to DMSO (YNL142W): 15.6 | GFP ratio to DMSO (YHR144C): 0.869 (inactive) | GFP ratio to DMSO (YJR148W): 3.38 | GFP ratio to DMSO (YDL205C): 0.898 (inactive) | GFP ratio to DMSO (YOR173W): 1.86 | GFP ratio to DMSO (YAL061W): 2.14 | GFP ratio to DMSO (YPL131W): 0.781 (inactive) | GFP ratio to DMSO (YER117W): 0.304 | GFP ratio to DMSO (YGL135W): 0.682 (inactive) | GFP ratio to DMSO (YDR382W): 0.783 (inactive) | GFP ratio to DMSO (YPR184W): 2.01 | GFP ratio to DMSO (YBL087C): 0.33 | GFP ratio to DMSO (YNL214W): 1.06 (inactive) | GFP ratio to DMSO (YNL068C): 1.06 (inactive) | GFP ratio to DMSO (YHL021C): 2.52 | GFP ratio to DMSO (YBR072W): 4.94 | GFP ratio to DMSO (YAL060W): 3.23 | GFP ratio to DMSO (YOR136W): 1.51

— PubChem BioAssay AID504473 (NMMLSC, 2011)
